Reference: the NIST ThermoML archive (doi:10.1016/j.jct.2015.07.005)
Where “and” joins values, the source holds several entries; their conditions need not be identical. Identical values can stand only once.

Details: Gas, Frequency=0.005 MHz, Spherical cavity resonance method

F/C=C/C(F)(F)F [trans-1,3,3,3-tetrafluoropropene]
Details | speed of sound
279.9 K, 79.55 kPa | 146.69 m/s and 146.7 m/s
279.9 K, 157.55 kPa | 143.78 m/s
279.9 K, 241.33 kPa | 140.43 m/s
279.91 K, 79.56 kPa | 146.7 m/s
279.91 K, 241.34 kPa | 140.43 m/s
279.92 K, 157.55 kPa | 143.79 m/s
279.92 K, 241.34 kPa | 140.43 m/s
299.96 K, 80.04 kPa | 152.13 m/s
299.96 K, 239.74 kPa | 147.27 m/s
299.97 K, 80.03 kPa | 152.13 m/s
299.97 K, 159.07 kPa | 149.78 m/s
299.97 K, 239.75 kPa | 147.27 m/s
299.97 K, 361.26 kPa | 143.22 m/s
299.98 K, 80.03 kPa | 152.13 m/s
299.98 K, 159.07 kPa | 149.78 m/s
299.98 K, 239.74 kPa | 147.27 m/s
299.98 K, 361.27 kPa | 143.22 m/s
319.93 K, 552.34 kPa | 144.79 m/s
319.94 K, 98.42 kPa | 156.86 m/s
319.94 K, 195.83 kPa | 154.47 m/s
319.94 K, 195.84 kPa | 154.47 m/s
319.94 K, 400.99 kPa | 149.11 m/s
319.94 K, 552.38 kPa | 144.78 m/s
319.94 K, 552.39 kPa | 144.78 m/s
319.95 K, 98.42 kPa | 156.87 m/s
319.95 K, 195.84 kPa | 154.47 m/s
319.95 K, 400.99 kPa | 149.1 m/s
319.96 K, 98.42 kPa | 156.86 m/s
319.97 K, 790.74 kPa | 137.11 m/s
319.97 K, 790.76 kPa | 137.11 m/s
319.98 K, 790.76 kPa | 137.11 m/s
319.98 K, 790.77 kPa | 137.11 m/s
319.99 K, 790.81 kPa | 137.11 m/s
339.94 K, 1198.3 kPa | 134.8 m/s and 134.79 m/s
339.95 K, 199.81 kPa | 159.81 m/s
339.95 K, 199.82 kPa | 159.81 m/s
339.95 K, 311.18 kPa | 157.48 m/s
339.95 K, 311.19 kPa | 157.48 m/s
339.95 K, 511.43 kPa | 153.07 m/s
339.95 K, 511.55 kPa | 153.07 m/s
339.95 K, 797.03 kPa | 146.18 m/s
339.95 K, 797.04 kPa | 146.18 m/s
339.95 K, 1001.8 kPa | 140.68 m/s
339.95 K, 1001.9 kPa | 140.68 m/s
339.95 K, 1198.4 kPa | 134.8 m/s
339.96 K, 99.31 kPa | 161.86 m/s
339.96 K, 200.05 kPa | 159.82 m/s
339.96 K, 311.18 kPa | 157.48 m/s
339.96 K, 400.04 kPa | 155.58 m/s and 155.58 m/s
339.96 K, 511.39 kPa | 153.07 m/s
339.96 K, 797.05 kPa | 146.18 m/s
339.96 K, 1001.9 kPa | 140.68 m/s
339.97 K, 99.31 kPa | 161.86 m/s
339.97 K, 200.05 kPa | 159.82 m/s
339.97 K, 200.06 kPa | 159.82 m/s
339.97 K, 400.04 kPa | 155.58 m/s
339.97 K, 799.59 kPa | 146.12 m/s
339.98 K, 595.08 kPa | 151.15 m/s
339.98 K, 799.46 kPa | 146.12 m/s
339.98 K, 799.52 kPa | 146.12 m/s
359.95 K, 99 kPa | 166.68 m/s
359.95 K, 99.01 kPa | 166.68 m/s
359.96 K, 99 kPa | 166.68 m/s
359.96 K, 99.01 kPa | 166.69 m/s and 166.68 m/s
359.96 K, 307 kPa | 163.12 m/s
359.96 K, 510.35 kPa | 159.46 m/s
359.96 K, 808.74 kPa | 153.75 m/s
359.96 K, 1598.8 kPa | 135.69 m/s
359.97 K, 307 kPa | 163.12 m/s
359.97 K, 511.03 kPa | 159.45 m/s
359.97 K, 808.65 kPa | 153.75 m/s
359.97 K, 808.68 kPa | 153.75 m/s
359.97 K, 1174.2 kPa | 146.04 m/s
359.97 K, 1174.3 kPa | 146.04 m/s
359.97 K, 1598.8 kPa | 135.7 m/s
359.97 K, 2002.9 kPa | 123.58 m/s and 123.58 m/s
359.98 K, 1598.8 kPa | 135.7 m/s
359.98 K, 2002.9 kPa | 123.58 m/s
379.99 K, 98.62 kPa | 171.32 m/s
379.99 K, 98.63 kPa | 171.32 m/s
379.99 K, 297.94 kPa | 168.44 m/s
379.99 K, 452.13 kPa | 166.16 m/s
379.99 K, 784.29 kPa | 161.02 m/s
379.99 K, 784.34 kPa | 161.02 m/s
379.99 K, 1195.5 kPa | 154.18 m/s
379.99 K, 1195.6 kPa | 154.18 m/s
379.99 K, 2008.2 kPa | 138.61 m/s
380 K, 98.61 kPa | 171.32 m/s
380 K, 98.63 kPa | 171.32 m/s
380 K, 297.93 kPa | 168.44 m/s
380 K, 452.13 kPa | 166.16 m/s
380 K, 784.28 kPa | 161.02 m/s
380 K, 1195.5 kPa | 154.18 m/s
380 K, 1608.3 kPa | 146.68 m/s
380 K, 2008.2 kPa | 138.61 m/s
380 K, 2215.6 kPa | 134.03 m/s
380 K, 2215.7 kPa | 134.03 m/s
380 K, 2385.9 kPa | 130 m/s
380 K, 2386 kPa | 130 m/s
380 K, 2606.5 kPa | 124.35 m/s
380 K, 2606.6 kPa | 124.35 m/s
380.01 K, 2606.6 kPa | 124.35 m/s
380.01 K, 2822.2 kPa | 118.21 m/s
380.01 K, 2822.3 kPa | 118.22 m/s
380.02 K, 2822.3 kPa | 118.22 m/s
401.99 K, 98.41 kPa | 176.35 m/s
401.99 K, 98.44 kPa | 176.35 m/s
401.99 K, 98.45 kPa | 176.35 m/s
401.99 K, 98.46 kPa | 176.35 m/s
402 K, 98.39 kPa | 176.35 m/s
402 K, 98.4 kPa | 176.35 m/s
402 K, 98.42 kPa | 176.35 m/s
402 K, 98.43 kPa | 176.35 m/s
402 K, 98.44 kPa | 176.35 m/s
402 K, 98.45 kPa | 176.35 m/s
402 K, 98.46 kPa | 176.35 m/s
402 K, 299.24 kPa | 173.94 m/s
402 K, 299.25 kPa | 173.94 m/s
402 K, 299.26 kPa | 173.94 m/s
402 K, 503.14 kPa | 171.43 m/s
402 K, 504.13 kPa | 171.42 m/s
402 K, 504.78 kPa | 171.41 m/s
402 K, 504.99 kPa | 171.4 m/s
402 K, 505.27 kPa | 171.4 m/s
402 K, 505.76 kPa | 171.4 m/s
402 K, 505.81 kPa | 171.4 m/s
402 K, 505.96 kPa | 171.4 m/s
402 K, 506.02 kPa | 171.4 m/s
402.01 K, 502.88 kPa | 171.44 m/s
402.01 K, 503 kPa | 171.43 m/s
402.01 K, 505.02 kPa | 171.41 m/s
402.01 K, 793.53 kPa | 167.78 m/s
402.01 K, 793.54 kPa | 167.77 m/s and 167.77 m/s
402.01 K, 1189.8 kPa | 162.56 m/s and 162.56 m/s
402.01 K, 1595.9 kPa | 156.94 m/s
402.01 K, 1596 kPa | 156.94 m/s
402.02 K, 1595.8 kPa | 156.94 m/s and 156.94 m/s
402.02 K, 1595.9 kPa | 156.94 m/s
402.02 K, 1596 kPa | 156.94 m/s
402.02 K, 1596.1 kPa | 156.94 m/s
402.02 K, 1596.2 kPa | 156.94 m/s
402.02 K, 1596.3 kPa | 156.94 m/s
402.02 K, 1996.4 kPa | 151.09 m/s
402.03 K, 1996.4 kPa | 151.09 m/s and 151.09 m/s
402.03 K, 2385.1 kPa | 145.09 m/s
402.03 K, 2385.2 kPa | 145.1 m/s and 145.1 m/s
402.04 K, 2832 kPa | 137.75 m/s and 137.75 m/s
402.04 K, 2832.1 kPa | 137.75 m/s and 137.75 m/s
419.97 K, 100.24 kPa | 180.17 m/s
419.97 K, 100.26 kPa | 180.17 m/s
419.97 K, 100.28 kPa | 180.17 m/s
419.97 K, 298.93 kPa | 178.09 m/s
419.98 K, 100.2 kPa | 180.17 m/s
419.98 K, 100.21 kPa | 180.17 m/s
419.98 K, 100.22 kPa | 180.17 m/s
419.98 K, 100.23 kPa | 180.17 m/s
419.98 K, 100.24 kPa | 180.17 m/s
419.98 K, 100.25 kPa | 180.17 m/s
419.98 K, 100.27 kPa | 180.17 m/s
419.98 K, 100.28 kPa | 180.17 m/s
419.98 K, 298.92 kPa | 178.09 m/s
419.98 K, 298.93 kPa | 178.09 m/s
419.98 K, 476.26 kPa | 176.21 m/s
